In the supplement of paper PMC10307832:

Experiments:
Assay in all cases: relative viability (nuclei count vs DMSO), 5 days (fraction); higher = more cells survive
[1] = compound: CO[C@@H]1[C@H](N(C)C(=O)c2ccccc2)C[C@H]2O[C@]1(C)n1c3ccccc3c3c4c(c5c6ccccc6n2c5c31)C(=O)NC4 [Midostaurin] + CC(C)C[C@H](NC(=O)[C@H](Cc1ccccc1)NC(=O)c1cnccn1)B(O)O [Bortezomib] (partner 0.002 µM)
How it was run: (§1)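 After 5 days of treatment, lung cancer cells in 1536-well plates were fixed and stained in a single step (final 0.05% Triton X-100, 1% formaldehyde, 1 ug/ml Hoechst) and their nuclei counted on 4× images. Treatment had been applied by pin tool the day after seeding as one drug alone or as a fixed anchor-drug dose with five library-drug doses (not always all listed) in √10 steps. Relative viability is the nuclei count of treated wells divided by that of vehicle wells, and values are medians of duplicate plates.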

[2] = compound: CO[C@@H]1[C@H](N(C)C(=O)c2ccccc2)C[C@H]2O[C@]1(C)n1c3ccccc3c3c4c(c5c6ccccc6n2c5c31)C(=O)NC4 [Midostaurin] + CS(=O)(=O)CCNCc1ccc(-c2ccc3ncnc(Nc4ccc(OCc5cccc(F)c5)c(Cl)c4)c3c2)o1 [Lapatinib] (partner 2 µM)
How it was run: as §1

[3] = compound: CO[C@@H]1[C@H](N(C)C(=O)c2ccccc2)C[C@H]2O[C@]1(C)n1c3ccccc3c3c4c(c5c6ccccc6n2c5c31)C(=O)NC4 [Midostaurin] + C[C@]1(O)C[C@@H](c2nc(-c3ccc4ccc(-c5ccccc5)nc4c3)c3c(N)nccn32)C1 [Linsitinib] (partner 1 µM)
How it was run: as §1

[4] = compound: CO[C@@H]1[C@H](N(C)C(=O)c2ccccc2)C[C@H]2O[C@]1(C)n1c3ccccc3c3c4c(c5c6ccccc6n2c5c31)C(=O)NC4 [Midostaurin] + Cc1cc(Nc2cc(N3CCN(C)CC3)nc(Sc3ccc(NC(=O)C4CC4)cc3)n2)n[nH]1 [Tozasertib] (partner 0.1 µM)
How it was run: as §1

[5] = compound: CO[C@@H]1[C@H](N(C)C(=O)c2ccccc2)C[C@H]2O[C@]1(C)n1c3ccccc3c3c4c(c5c6ccccc6n2c5c31)C(=O)NC4 [Midostaurin] + O=C(c1cc(Cc2n[nH]c(=O)c3ccccc23)ccc1F)N1CCN(C(=O)C2CC2)CC1 [Olaparib] (partner 8 µM)
How it was run: as §1

Cell Line | relative viability ([1]; first compound 0.01 µM) | relative viability ([1]; first compound 0.03162 µM) | relative viability ([1]; first compound 0.1 µM) | relative viability ([1]; first compound 0.3162 µM) | relative viability ([2]; first compound 0.01 µM) | relative viability ([2]; first compound 0.03162 µM) | relative viability ([2]; first compound 0.1 µM) | relative viability ([2]; first compound 0.3162 µM) | relative viability ([3]; first compound 0.01 µM) | relative viability ([3]; first compound 0.03162 µM) | relative viability ([3]; first compound 0.1 µM) | relative viability ([3]; first compound 0.3162 µM) | relative viability ([4]; first compound 0.01 µM) | relative viability ([4]; first compound 0.03162 µM) | relative viability ([4]; first compound 0.1 µM) | relative viability ([4]; first compound 0.3162 µM) | relative viability ([5]; first compound 0.01 µM) | relative viability ([5]; first compound 0.03162 µM) | relative viability ([5]; first compound 0.1 µM) | relative viability ([5]; first compound 0.3162 µM)
SK-LU-1 | 1.15 | 1.31 | 1.36 | 1.19 | 0.806 | 1.17 | 0.823 | 0.572 | 1.11 | 0.961 | 1.06 | 0.664 | 0.337 | 0.449 | 0.278 | 0.202 | 0.471 | 0.439 | 0.443 | 0.346
NCI-H1975 | 0.325 | 0.513 | 0.446 | 0.322 | 0.82 | 0.893 | 0.871 | 0.665 | 0.92 | 0.959 | 0.727 | 0.575 | 0.732 | 0.763 | 0.716 | 0.37 | 0.733 | 0.677 | 0.701 | 0.466
NCI-H1651 | 0.955 | 1.01 | 1.02 | 1.03 | 0.74 | 0.931 | 0.787 | 1.05 | 1.06 | 0.851 | 1.03 | 0.957 | 0.628 | 0.752 | 0.543 | 0.685 | 0.199 | 0.2 | 0.169 | 0.17
LCLC-97TM1 | 0.475 |  | 0.419 | 0.595 | 0.73 |  | 0.846 | 1.12 | 0.193 |  | 0.145 | 0.184 | 0.21 | 0.218 | 0.247 | 0.257 | 0.52 | 0.374 | 0.32 | 0.464
NCI-H727 | 0.906 | 0.81 | 0.771 | 0.795 | 1.02 | 0.739 | 0.91 | 0.728 | 0.329 | 0.337 | 0.349 | 0.227 | 0.704 | 0.704 | 0.575 | 0.468 | 0.659 | 0.62 | 0.628 | 0.68
NCI-H1355 | 1.13 | 1.16 | 1.31 | 1.26 | 0.979 | 0.959 | 1.08 | 1.09 | 0.755 | 0.83 | 0.865 | 0.838 | 0.544 | 0.632 | 0.597 | 0.475 | 0.777 | 0.78 | 0.77 | 0.68
HOP-62 | 0.887 | 0.728 | 0.635 | 1.17 | 1.02 | 0.994 | 1.14 | 1.06 | 1.1 | 0.911 | 0.938 | 0.995 | 0.363 | 0.431 | 0.303 | 0.321 | 0.321 | 0.452 | 0.414 | 0.372
NCI-H2085 | 0.968 | 0.963 | 1.08 | 0.946 | 0.759 | 0.857 | 0.823 | 0.639 | 0.842 | 0.865 | 0.801 | 0.768 | 0.807 | 0.764 | 0.663 | 0.582 | 0.76 | 0.708 | 0.834 | 0.711
